Test results reported in patent US11584961B2, “Biomarkers for inflammatory skin disease” (Incyte Corporation, priority 2018, dated 2023).
“And” between values parts separate entries of the source, which are not always exact repeats. Identical values can stand only once. “Also recorded” adds a separate entry of the source.

Key:
[1] = test system: mild to moderate plaque psoriasis; test: Double-blind, randomized, vehicle controlled dose ranging study of topical ruxolitinib (INCB018424) in plaque psoriasis, PASI response at day 28 and day 84 (Example 4); format: in vivo, human; conditions: for Classification: therapeutic response at day 84, individual subjects; for % Change in PASI at Day 28 / % Change in PASI at Day 84: individual subjects
[2] = test system: mild to moderate plaque psoriasis; test: Study of topical ruxolitinib (INCB018424) cream in plaque psoriasis, PASI response at day 28 (Example 1); format: in vivo, human; conditions: for Classification: therapeutic response at day 28, individual subjects; for % Change in PASI at Day 28: individual subjects

SMILES: N#CC[C@H](C1CCCC1)n1cc(-c2ncnc3[nH]ccc23)cn1 [INCB018424, (3R)-3-cyclopentyl-3-[4-(7H-pyrrolo[2,3-d]pyrimidin-4-yl)-1H-pyrazol-1-yl]propanenitrile]
- Classification ([1]; 0.5% QD): Responder (individuals were classified as responders if they had >=50% improvement in psoriasis area severity index on day 84); also recorded: Non-Responder
- Classification ([1]; 1.0% QD): Non-Responder; also recorded: Responder (individuals were classified as responders if they had >=50% improvement in psoriasis area severity index on day 84)
- Classification ([1]; 1.5% QD): Non-Responder; also recorded: Responder (individuals were classified as responders if they had >=50% improvement in psoriasis area severity index on day 84)
- % Change in PASI at Day 28 ([1]; topical cream 0.5% QD): −16.7% (2×) and −23.5% and −51.7% and −12.5% and −27.8%
- % Change in PASI at Day 84 ([1]; topical cream 0.5% QD): −75% and −50% and −23.5% and −66.7% and −12.5% and −45.9%
- % Change in PASI at Day 28 ([1]; topical cream 1.0% QD): −15.3% and 0% and 83.3%
- % Change in PASI at Day 84 ([1]; topical cream 1.0% QD): 0% and −66.7% and 77.8%
- % Change in PASI at Day 28 ([1]; topical cream 1.5% QD): −12.6% and −4.7% and −28% and −50% and −32%
- % Change in PASI at Day 84 ([1]; topical cream 1.5% QD): −12.6% and −42.5% and −30% and −84.8% and −64%
- Classification ([2]; 1.0% BID): Responder
- Classification ([2]; 1.5% BID): Responder; also recorded: Non-Responder
- Classification ([2]; 1.5% QD): Non-Responder; also recorded: Responder
- % Change in PASI at Day 28 ([2]; topical cream 1.0% BID): −60.0% and −66.7% (2×)
- % Change in PASI at Day 28 ([2]; topical cream 1.5% BID): −85.7% and −40.0% (2×) and −33.3% and −50.0% and −60.0%
- % Change in PASI at Day 28 ([2]; topical cream 1.5% QD): −33.3% and −80.0% and −50.0%
